Literature values in US20230027739A1, “ANTIGEN-BINDING AND ANTIGEN D[…]” (Entrada Therapeutics, Inc., priority 2021, published 2023).

What was measured:
[1] = for Amino Acid SASA Values, Theoretical: theoretical values as reported by Tien, et al.
[2] = for Amino Acid Hydrophobicity, Eisenberg and Weiss: hydrophobicity scale of Eisenberg and Weiss; for Amino Acid Hydrophobicity, Engleman et al.: hydrophobicity scale of Engleman et al.; for Amino Acid Hydrophobicity, Hoop and Woods: hydrophobicity scale of Hoop and Woods; for Amino Acid Hydrophobicity, Janin: hydrophobicity scale of Janin; for Amino Acid Hydrophobicity, Kyrie and Doolittle: hydrophobicity scale of Kyrie and Doolittle

Compound	Amino Acid SASA Values, Miller et al. (1987) [1]	Amino Acid SASA Values, Rose et al. (1985) [1]	Amino Acid SASA Values, Empirical [1]	Amino Acid SASA Values, Theoretical [1]	Amino Acid Hydrophobicity, Eisenberg and Weiss [2]	Amino Acid Hydrophobicity, Engleman et al. [2]	Amino Acid Hydrophobicity, Hoop and Woods [2]	Amino Acid Hydrophobicity, Janin [2]	Amino Acid Hydrophobicity, Kyrie and Doolittle [2]
N=C(N)NCCC[C@H](N)C(=O)O [Arginine]	241.0 Å^2	256.0 Å^2	265.0 Å^2	274.0 Å^2	–	–	–	–	–
N[C@@H](Cc1c[nH]c2ccccc12)C(=O)O [Trp]	–	–	–	–	0.37	1.9	−3.4	0.3	−0.9
N[C@@H](CC(=O)O)C(=O)O [Aspartate]	151.0 Å^2	158.7 Å^2	187.0 Å^2	193.0 Å^2	–	–	–	–	–
N[C@@H](Cc1ccc(O)cc1)C(=O)O [Tyr]	–	–	–	–	0.02	−0.7	−2.3	−0.4	−1.3
CSCC[C@H](N)C(=O)O [Met]	–	–	–	–	0.26	3.4	−1.3	0.4	1.9
NCCCC[C@H](N)C(=O)O [Lys]	–	–	–	–	−1.10	−8.8	3.0	−1.8	−3.9
C[C@@H](O)[C@H](N)C(=O)O [Thr]	–	–	–	–	−0.18	1.2	−0.4	−0.2	−0.7
CC(C)[C@H](N)C(=O)O [Valine]	160.0 Å^2	164.5 Å^2	165.0 Å^2	174.0 Å^2	–	–	–	–	–
N[C@@H](Cc1ccc(O)cc1)C(=O)O [Tyrosine]	229.0 Å^2	236.8 Å^2	255.0 Å^2	263.0 Å^2	–	–	–	–	–
N[C@@H](CO)C(=O)O [Serine]	122.0 Å^2	129.8 Å^2	143.0 Å^2	155.0 Å^2	–	–	–	–	–
N[C@@H](CCC(=O)O)C(=O)O [Glu]	–	–	–	–	−0.62	−8.2	3.0	−0.7	−3.5
N[C@@H](Cc1ccccc1)C(=O)O [Phenylalanine]	218.0 Å^2	222.8 Å^2	228.0 Å^2	240.0 Å^2	–	–	–	–	–
N[C@@H](Cc1ccccc1)C(=O)O [Phe]	–	–	–	–	0.61	3.7	−2.5	0.5	2.8
O=C(O)[C@@H]1CCCN1 [Proline]	143.0 Å^2	146.8 Å^2	154.0 Å^2	–	–	–	–	–	–
N[C@@H](CS)C(=O)O [Cys]	–	–	–	–	0.04	2.0	−1.0	0.9	2.5
NC(=O)C[C@H](N)C(=O)O [Asn]	–	–	–	–	−0.64	−4.8	0.2	−0.5	−3.5
C[C@@H](O)[C@H](N)C(=O)O [Threonine]	146.0 Å^2	152.5 Å^2	163.0 Å^2	172.0 Å^2	–	–	–	–	–

Compound	Amino Acid SASA Values, Miller et al. (1987) [1]	Amino Acid SASA Values, Rose et al. (1985) [1]	Amino Acid SASA Values, Empirical [1]	Amino Acid SASA Values, Theoretical [1]	Amino Acid Hydrophobicity, Eisenberg and Weiss [2]	Amino Acid Hydrophobicity, Engleman et al. [2]	Amino Acid Hydrophobicity, Hoop and Woods [2]	Amino Acid Hydrophobicity, Janin [2]	Amino Acid Hydrophobicity, Kyrie and Doolittle [2]
N=C(N)NCCC[C@H](N)C(=O)O [Arg]	–	–	–	–	−1.80	−12.3	3.0	−1.4	−4.5
CSCC[C@H](N)C(=O)O [Methionine]	204.0 Å^2	203.4 Å^2	203.0 Å^2	224.0 Å^2	–	–	–	–	–
N[C@@H](CCC(=O)O)C(=O)O [Glutamate]	183.0 Å^2	186.2 Å^2	214.0 Å^2	–	–	–	–	–	–
N[C@@H](Cc1c[nH]c2ccccc12)C(=O)O [Tryptophan]	259.0 Å^2	266.3 Å^2	264.0 Å^2	285.0 Å^2	–	–	–	–	–
CC[C@H](C)[C@H](N)C(=O)O [Isoleucine]	182.0 Å^2	181.0 Å^2	195.0 Å^2	197.0 Å^2	–	–	–	–	–
N[C@@H](Cc1c[nH]cn1)C(=O)O [His]	–	–	–	–	−0.40	−3.0	−0.5	−0.1	−3.2
N[C@@H](CS)C(=O)O [Cysteine]	140.0 Å^2	146.1 Å^2	148.0 Å^2	167.0 Å^2	–	–	–	–	–
NCC(=O)O [Glycine]	85.0 Å^2	88.1 Å^2	97.0 Å^2	104.0 Å^2	–	–	–	–	–
NC(=O)C[C@H](N)C(=O)O [Asparagine]	158.0 Å^2	165.5 Å^2	187.0 Å^2	195.0 Å^2	–	–	–	–	–
C[C@H](N)C(=O)O [Alanine]	113.0 Å^2	118.1 Å^2	121.0 Å^2	129.0 Å^2	–	–	–	–	–
N[C@@H](Cc1c[nH]cn1)C(=O)O [Histidine]	194.0 Å^2	202.5 Å^2	216.0 Å^2	224.0 Å^2	–	–	–	–	–
N[C@@H](CO)C(=O)O [Ser]	–	–	–	–	−0.26	0.6	0.3	−0.1	−0.8
N[C@@H](CC(=O)O)C(=O)O [Asp]	–	–	–	–	−0.72	−9.2	3.0	−0.6	−3.5
C[C@H](N)C(=O)O [Ala]	–	–	–	–	0.25	1.6	−0.5	0.3	1.8
NCCCC[C@H](N)C(=O)O [Lysine]	211.0 Å^2	225.8 Å^2	230.0 Å^2	236.0 Å^2	–	–	–	–	–
CC(C)[C@H](N)C(=O)O [Val]	–	–	–	–	0.54	2.6	−1.5	0.6	4.2
